These results are taken from publication PMC9730446 (Science translational medicine, 2022).

A short description of series [1]: Cytotoxicity in peripheral blood mononuclear cells. As to conditions: human, peripheral blood mononuclear cells (PBMCs).
For series [2], the system named is KOPT-K1 cells. Format: cell-based.
Series [3] in a line: Cytotoxicity in CD34+ cells from healthy donors. Particulars: human, CD34+ cells from cord blood of healthy donors.
Series [4] has as its system KOPT-K1 cells. The series can be described thus: In vitro drug wash-out assay, cell growth. The format is cell-based. As to conditions: 100nM for 18 hours, then drug-free media.
Series [5] can be described thus: in vivo. Particulars: NSG, mouse, plasma, ip, 10 mg/kg.

As for `Cc1nc(Nc2ncc(C(=O)Nc3c(C)cccc3Cl)s2)cc(N2CCN(CCO)CC2)n1` [dasatinib], the results for the CC50 at 72 h in series [1] and in series [3] were 2.81 nM and 92.9 nM, respectively. Besides, in series [2], the “effect of lenalidomide on LC50” value is recorded as “did not alter”. Further, the “effect of CRBN deletion (CRBN^KO) on cell sensitivity” value in series [2] (CRBN^KO vs CRBN^WT KOPT-K1, 72 hours) is recorded as “did not alter cell sensitivity”. In series [4], the “time post drug removal at which cells began to recover” value came out at 96 h. In series [5], this compound yielded an AUC of 1400 ng·h/mL. In series [5], this compound gave a half-life of 55.2 min.
Turning to `Nc1cccc2c1CN(C1CCC(=O)NC1=O)C2=O` (centres unmarked) [lenalidomide], the “effect on T-ALL survival and growth” value in series [2] (single agent) is listed as “no effect”.
